From patent publication US9328099B2, “Cyanomethylpyrazole carboxamides as janus kinase inhibitors” (Merck Sharp & Dohme Corp., priority 2011, dated 2016)

How the values were obtained:
JAK1 = JAK1 (Homo sapiens (Human), UniProt P23458); assay: Jak Biochemical HTRF Assay, JAK1; details: HTRF biochemical assay, GST-tagged catalytic domain; top concentration tested […]; read-out: JAK1 IC50
From the text: (§1) Jak Biochemical HTRF Assay Protocol
(§2) Subsequent reagent additions employed an Agilent Bravo.

JAK2 = JAK2 (Homo sapiens (Human), UniProt O60674); assay: Jak Biochemical HTRF Assay, JAK2; details: HTRF biochemical assay, GST-tagged catalytic domain; top concentration tested […]
JAK2, sequence (O60674 849-1124): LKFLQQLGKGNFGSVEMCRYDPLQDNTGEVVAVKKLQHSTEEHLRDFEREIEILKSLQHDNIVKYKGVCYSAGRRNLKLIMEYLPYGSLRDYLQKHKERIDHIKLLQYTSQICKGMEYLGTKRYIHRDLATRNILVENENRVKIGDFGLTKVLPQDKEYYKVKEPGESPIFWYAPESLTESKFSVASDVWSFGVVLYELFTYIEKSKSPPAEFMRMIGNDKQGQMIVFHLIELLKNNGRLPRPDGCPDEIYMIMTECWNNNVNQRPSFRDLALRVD
From the text: as §1, §2

JAK1, sequence (P23458 875-1153): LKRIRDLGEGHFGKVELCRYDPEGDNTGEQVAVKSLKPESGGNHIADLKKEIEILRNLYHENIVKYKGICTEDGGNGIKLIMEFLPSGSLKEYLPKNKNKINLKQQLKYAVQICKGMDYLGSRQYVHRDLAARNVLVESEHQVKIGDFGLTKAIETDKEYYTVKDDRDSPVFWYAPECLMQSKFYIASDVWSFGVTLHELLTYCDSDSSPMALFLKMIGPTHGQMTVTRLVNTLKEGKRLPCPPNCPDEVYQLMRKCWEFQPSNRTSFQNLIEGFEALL

IC50 (JAK1) | IC50 (JAK2) | Structure (SMILES)
13 nM | 175 nM | Cc1ccc(NC(=O)N2CC(CC#N)(n3cc(C(N)=O)c(Nc4ccc(S(C)(=O)=O)cc4)n3)C2)cc1 [Example 38-41, 1-{3-(cyanomethyl)-1-[(4-methylphenyl)carbamoyl]azetidin-3-yl}-3-{[4-(methylsulfonyl)phenyl]amino}-1H-pyrazole-4-carboxamide]
0.4 nM | 8 nM | Cc1ccc(N2CCC(CC#N)(n3cc(C(N)=O)c(Nc4ccc(F)cc4)n3)CC2)cn1 [Example 3-52, 1-[4-(cyanomethyl)-1-(6-methylpyridin-3-yl)piperidin-4-yl]-3-[(4-fluorophenyl)amino]-1H-pyrazole-4-carboxamide]
11 nM | 135 nM | Cc1ccc(CN2CCC(CC#N)(n3cc(C(N)=O)c(Nc4ccccc4)n3)CC2)cc1 [Example 21-7, 1-[4-(cyanomethyl)-1-(4-methylbenzyl)piperidin-4-yl]-3-(phenylamino)-1H-pyrazole-4-carboxamide]
6 nM | 94 nM | N#CCC1(n2cc(C(N)=O)c(Nc3ccccc3)n2)CCN(C(=O)c2ccccc2)CC1 [Example 34-7, 1-[4-(cyanomethyl)-1-(phenylcarbonyl)piperidin-4-yl]-3-(phenylamino)-1H-pyrazole-4-carboxamide]
32 nM | 448 nM | COc1ccc(C(=O)N2CCC(CC#N)(n3cc(C(N)=O)c(Nc4ccccc4)n3)CC2)cc1OC [Example 34-27, 1-{4-(cyanomethyl)-l-[(3,4-dimethoxyphenyl)carbonyl]piperidin-4-yl}-3-(phenylamino)-1H-pyrazole-4-carboxamide]
2 nM | 73 nM | N#CCC1(n2cc(C(N)=O)c(Nc3ccc(F)cc3)n2)CCN(Cc2ccc(F)cn2)CC1 [Example 22-48, 1-{4-(cyanomethyl)-1-[(5-fluoropyridin-2-yl)methyl]piperidin-4-yl}-3-[(4-fluorophenyl)amino]-1H-pyrazole-4-carboxamide]
130 nM | 1480 nM | CN1CCC(COC(=O)N2CC(CC#N)(n3cc(C(N)=O)c(Nc4ccccc4)n3)C2)CC1 [Example 30-73, (1-methylpiperidin-4-yl)methyl-3-[4-carbamoyl-3-(phenylamino)-1H-pyrazol-1-yl]-3-(cyanomethyl)azetidine-1-carboxylate]
1 nM | 64 nM | N#CCC1(n2cc(C(N)=O)c(Nc3ccc(F)cc3)n2)CCN(Cc2cc3ccccc3[nH]2)CC1 [Example 22-43, 1-[4-(cyanomethyl)-1-(1H-indol-2-ylmethyl)piperidin-4-yl]-3-[(4-fluorophenyl)amino]-1H-pyrazole-4-carboxamide]
200 nM | 1480 nM | CN(C)CCCOC(=O)N1CC(CC#N)(n2cc(C(N)=O)c(Nc3ccccc3)n2)C1 [Example 30-71, 3-(dimethylamino)propyl 3-[4-carbamoyl-3-(phenylamino)-1H-pyrazol-1-yl]-3-(cyanomethyl)azetidine-1-carboxylate]
1 nM | 23 nM | Cc1cc(N2CCC(CC#N)(n3cc(C(N)=O)c(Nc4ccc(F)cc4)n3)CC2)cnc1F [Example 3-56, 1-[4-(cyanomethyl)-1-(6-fluoro-5-methylpyridin-3-yl)piperidin-4-yl]-3-[(4-fluorophenyl)amino]-1H-pyrazole-4-carboxamide]
25 nM | 334 nM | Cc1cc(Cl)ccc1NC(=O)N1CC(CC#N)(n2cc(C(N)=O)c(Nc3ccccc3)n2)C1 [Example 38-14, 1-{1-[(4-chloro-2-methylphenyl)carbamoyl]-3-(cyanomethyl)azetidin-3-yl}-3-(phenylamino)-1H-pyrazole-4-carboxamide]
0.7 nM | 11 nM | N#CCC1(n2cc(C(N)=O)c(Nc3ccccc3)n2)CCN(Cc2c(F)ccc(F)c2F)CC1 [Example 21-26, 1-[4-(cyanomethyl)-1-(2,3,6-trifluorobenzyl)piperidin-4-yl]-3-(phenylamino)-1H-pyrazole-4-carboxamide]
0.4 nM | 9 nM | COc1ccc(N2CCC(CC#N)(n3cc(C(N)=O)c(Nc4ccc(F)cc4)n3)CC2)cn1 [Example 3-53, 1-[4-(cyanomethyl)-1-(6-methoxypyridin-3-yl)piperidin-4-yl]-3-[(4-fluorophenyl)amino]-1H-pyrazole-4-carboxamide]
7 nM | 348 nM | COc1cc(Nc2nn(C3(CC#N)CCN(C(=O)OCC(F)F)CC3)cc2C(N)=O)ccn1 [Example 9-39, 2,2-difluoroethyl 4-{4-carbamoyl-3-[(2-methoxypyridin-4-yl)amino]-1H-pyrazol-1-yl}-4-(cyanomethyl)piperidine-1-carboxylate]
1 nM | 16 nM | COc1ccc(CN2CCC(CC#N)(n3cc(C(N)=O)c(Nc4ccnc(F)c4)n3)CC2)cc1 [Example 22-65, 1-[4-(cyanomethyl)-1-(4-methoxybenzyl)piperidin-4-yl]-3-[(2-fluoropyridin-4-yl)amino]-1H-pyrazole-4-carboxamide]
2 nM | 35 nM | N#CCC1(n2cc(C(N)=O)c(Nc3ccccc3)n2)CCN(C(=O)c2ccsc2)CC1 [Example 34-16, 1-[4-(cyanomethyl)-1-(thiophen-3-ylcarbonyl)piperidin-4-yl]-3-(phenylamino)-1H-pyrazole-4-carboxamide]
0.4 nM | 6 nM | CC(O)c1ccc(Nc2nn(C3(CC#N)CCN(C(=O)OC(C)(C)C)CC3)cc2C(N)=O)cc1 (stereo not drawn) [Example 9-9, tert-butyl 4-(4-carbamoyl-3-(4-(1-hydroxyethyl)phenylamino)-1H-pyrazol-1-yl)-4-(cyanomethyl)piperidine-1-carboxylate]
4 nM | 154 nM | COc1ccc(N2CCC(CC#N)(n3cc(C(N)=O)c(Nc4ccc(F)cc4)n3)CC2)cc1OC [Example 3-1, 1-[4-(Cyanomethyl)-1-(3,4-dimethoxyphenyl)piperidin-4-yl]-3-[(4-fluorophenyl)amino]-1H-pyrazole-4-carboxamide]
0.8 nM | 71 nM | Cn1cc(-c2cncc(Nc3nn(C4(CC#N)CCN(C(=O)OCC(F)(F)F)CC4)cc3C(N)=O)c2)cn1 [Example 10-6, 2,2,2-trifluoroethyl 4-(4-carbamoyl-3-(5-(1-methyl-1H-pyrazol-4-yl)pyridinl-3-ylamino)-1H-pyrazol-1-yl)-4-(cyanomethyl)piperidine-1-carboxylate]
5 nM | 24 nM | N#CCC1(n2cc(C(N)=O)c(Nc3ccccc3)n2)CCN(S(=O)(=O)c2ccc(-c3ccccc3)cc2)CC1 [Example 37-14, 1-[1-(biphenyl-4-ylsulfonyl)-4-(cyanomethyl)piperidin-4-yl]-3-(phenylamino)-1H-pyrazole-4-carboxamide]
0.2 nM | 9 nM | N#CCC(=O)N1CCC(CC#N)(n2cc(C(N)=O)c(Nc3ccnc(F)c3)n2)CC1 [Example 34-49, 1-[1-(cyanoacetyl)-4-(cyanomethyl)piperidin-4-yl]-3-[(2-fIuoropyridin-4-yl)amino]-1H-pyrazole-4-carboxamide]
3 nM | 55 nM | N#CCC1(n2cc(C(N)=O)c(Nc3ccccc3)n2)CCN(Cc2ccccc2Cl)CC1 [Example 21-6, 1-[1-(2-chlorobenzyl)-4-(cyanomethyl)piperidin-4-yl]-3-(phenylamino)-1H-pyrazole-4-carboxamide]
0.1 nM | 5 nM | COC1CN(C2CCC(CC#N)(n3cc(C(N)=O)c(Nc4ccnc(F)c4)n3)CC2)C1 (stereo not drawn) [Example 40-81, Cis or trans 1-[1-(cyanomethyl)-4-(3-methoxyazetidin-1-yl)cyclohexyl]-3-[(2-fluoropyridin-4-yl)amino]-1H-pyrazole-4-carboxamide]
1 nM | 26 nM | Cc1cncc(N2CCC(CC#N)(n3cc(C(N)=O)c(Nc4ccc(F)cc4)n3)CC2)c1 [Example 3-48, 1-[4-(cyanomethyl)-1-(5-methylpyridin-3-yl)piperidin-4-yl]-3-[(4-fluorophenyl)amino]-1H-pyrazole-4-carboxamide]
0.1 nM | 6 nM | N#CCC1(n2cc(C(N)=O)c(Nc3ccnc(F)c3)n2)CCN(Cc2ccccc2)CC1 [Example 22-8, 1-[1-benzyl-4-(cyanomethyl)piperidin-4-yl]-3-[(2-fluoropyridin-4-yl)amino]-1H-pyrazole-4-carboxamide]
24 nM | 814 nM | COCCNC1CCC(CC#N)(n2cc(C(N)=O)c(Nc3ccc(F)cc3)n2)CC1 (stereo not drawn) [Example 40-71, Cis or trans 1-{1-(cyanomethyl)-4-[(2-methoxyethyl)amino]cyclohexyl}-3-[(4-fluorophenyl)amino]-1H-pyrazole-4-carboxamide]
0.5 nM | 4 nM | CC(C)(C)OC(=O)N1CCC(CC#N)(n2cc(C(N)=O)c(Nc3cccnc3)n2)CC1 [Example 9-34, tert-butyl 4-[4-carbamoyl-3-(pyridin-3-ylamino)-1H-pyrazol-1-yl]-4-(cyanomethyl)piperidine-1-carboxylate]
23 nM | 334 nM | Cc1ccc(NC(=O)N2CC(CC#N)(n3cc(C(N)=O)c(Nc4ccccc4)n3)C2)c(C)c1 [Example 38-19, 1-{3-(cyanomethyl)-1-[(2,4-dimethylphenyl)carbamoyl]azetidin-3-yl}-3-(phenylamino)-1H-pyrazole-4-carboxamide]
0.6 nM | 16 nM | N#CCC1(n2cc(C(N)=O)c(Nc3ccc(F)cc3)n2)CCN(Cc2cc(F)ccn2)CC1 [Example 22-50, 1-{4-(cyanomethyl)-1-[(4-fluoropyridin-2-yl)methyl]piperidin-4-yl}-3-[(4-fluorophenyl)amino]-1H-pyrazole-4-carboxamide]

Structure (SMILES) | IC50 (JAK1) | IC50 (JAK2)
N#CCC1(n2cc(C(N)=O)c(Nc3ccnc(F)c3)n2)CCC(NCC(F)F)CC1 (stereo not drawn) [Example 40-87, Cis or trans 1-{1-(cyanomethyl)-4-[(2,2-difluoroethyl)amino]cyclohexyl}-3-[(2-fluoropyridin-4-yl)amino]-1H-pyrazole-4-carboxamide] | 13 nM | 524 nM
